# How the values were obtained:
# [1] = tested on: thoracic aorta of SH rats; assay: Vaso-relaxing effect on the thoracic aorta of SH rats (in vitro testing after one month treatment); type: in vivo, rat; details: aorta rings of SH rats treated for one month (dose per compound as in table), contracted with 10^-6 M methoxamine, unit assumed; for vessel relaxing effect, Ach dose 10^-5 M: acetylcholine 10^-5 M; for vessel relaxing effect, Ach dose 10^-6 M: acetylcholine 10^-6 M; for vessel relaxing effect, Ach dose 10^-4 M: acetylcholine 10^-4 M
# Experimental: In the following, we give the results of the test of blood vessel relaxing effect, performed in vitro on rat vessels, and also the morphological results of the thoracic aorta.
# (§1) Three-month-old, genetically hypertonic (SH) Wistar Okamoto rats were treated for one month with various test compounds. Thereafter the functional and morphological tests were performed.
# The Vaso-relaxing Effect of the Compounds of the Invention on the Thoracic Aorta of SH Rats (In Vitro Testing)
# The test was performed by the method known from the literature [Japan J. Pharmacol., 59, 339-347 (1992)]. The SH rats were anesthetized with Nembutal (40 mg/kg, i. p.), then the thoracic aorta was removed and placed in oxygenized (95% O2+5% CO2) Krebs-Henseleit solution. The composition of the solution (mM): NaCl 118, KCI 4, 7, CaCl2 2,52, MgSO4 1,64, NaHCO3 24,88, KH2PO4 1,18, glucose 5,5. The 3-mm-long aorta rings were suspended in a 20 ml organ bath of 37° C. The resting tension was 1 g, which was maintained throughout the equilibration. During the 1 hour equilibration, the medium was changed in every 20 minutes. The vessels were contracted with 10^−6 M methoxamine (approximately 80% of maximal contraction). After reaching the maximal contraction, we tested the vasodilation resulting as the effect of the acetylcholine (Ach) (10^−6−10^−4 M), which informed us about the condition of the endothelium of the vessel wall. The contraction force was measured by an isometric strain gauge (SG-01D, Experimentia Ltd), and was registered on an OH-850 polygraph (Radelkis). At this time again, 5,6-dihydro-5-(1-piperidinyl)-methyl-3-(3-pyridyl)-4H-1,2,4-oxadiazine as described in WO 98/06400 was used as a reference compound.
# [2] = tested on: human umbilical vein endothelial cells (HUVEC); assay: Wounding migration assay in endothelial cell culture; type: cell-based; details: wounded HUVEC monolayer, 24 hours after wounding, test agent 10^-6 M
# Experimental: Wounding Migration Assay in Endothelial Cell Culture
# The effect of the compounds of the invention on the wounded monolayers of human umbilical vein endothelial cells (HUVEC) were studied in a cell culture system (in vitro). After reaching confluence, the HUVEC cells were wounded according to the method of Yamamura et al. (J. Surgical Res. 63, 349-354, 1996). The number of migrated cells were registered using computerized image analysis 24 hours after wounding in the absence and presence of the active agents under testing in a concentration of 10^−6 M. The active ingredient described in publication no. WO 98/06400, namely 5,6-dihydro-5-(1-piperidinyl)-methyl-3-(3-pyridyl)-4H-1,2,4-oxadiazine was used as reference compound.
# [3] = tested on: thoracic aorta of SH rats; assay: Morphological testing of the thoracic aortas with electron microscopy; type: in vivo, rat; set-up: key: 1: no regeneration was observable; 2: weak; 3: average; 4: good; 5: strong regeneration; details: SH rats treated p. o. for one month (dose per compound as in table), scale of 1 to 5, electron microscopy of thoracic aorta endothelium
# Experimental: as §1
# Morphological Testing of the Thoracic Aortas with Electron Microscopy
# The test was performed according to the procedure known from the literature (Br. J. of Pharmacol., 1995; 115, 415-420). 1 mm^2 pieces of the aorta wall was cut out of the thoracic aorta of the rats, and were then fixed with 2.5% glutaraldehyde at room temperature for 2 hours. This was followed by a post-fixation with 1% osmium tetroxide for 1 hour. Afterwards, the tissue pieces were dehydrated with ethanol, and embedded in Durcupan ACM. The samples were evaluated qualitatively based on the images recorded on a Hitachi 7100 electron microscope.
# On the scale, 1 was used to refer to cases where no regeneration was observable, 2 refers to weak, 3 to average, 4 to good, and 5 to strong regeneration.
SMILES,"vessel relaxing effect, Ach dose 10^-5 M [1] [%]","vessel relaxing effect, Ach dose 10^-6 M [1] [%]","vessel relaxing effect, Ach dose 10^-4 M [1] [%]","number of migrated cells, cell/mm^2 24 hours [2] [cell/mm^2]",Degree of regeneration [3]
"O=C1CCCCN1CC1CON=C(c2cccnc2)N1 (single isomer, unassigned) [Compound no. 8, (R) or (S)-5,6-dihydro-5-[(2-oxo-1-piperidinyl)methyl]-3-(3-pyridyl)-4H-1,2,4-oxadiazine]",88,–,–,–,–
"[O-][n+]1cccc(C2=NOCC(CN3CCCCC3)N2)c1 (single isomer, unassigned; (+)) [Compound no. 9, (+)-5,6-dihydro-5-[(1-piperidinyl)methyl]-3-(1-oxido-3-pyridyl)-4H-1,2,4-oxadiazine]",–,87,–,–,–
"O.O.O=[N+]([O-])c1cccc(C(Cl)=NOCCC[N+]2([O-])CCCCC2)c1 [Compound no. 4, N-[3-(1-oxido-1-piperidinyl)propoxy]-3-nitro-benzimidoyl-chloride dihydrate]",84.9,82.5,88.1,45,5
"OC1CCN(CC2CON=C(c3cccnc3)N2)CC1 (centres unmarked) [Compound no. 11, 5,6-dihydro-5-[(4-hydroxy-1-piperidinyl)methyl]-3-(3-pyridyl)-4H-1,2,4-oxadiazine]",85.1,79.7,86,51,4
"Cl.ClC(=NOCC(Cl)CN1CCCCC1)c1ccccc1 (centres unmarked) [Compound no. 12, N-[2-chloro-3-(1-piperidinyl)propoxy]-3-benzimidoyl-chloride hydrochloride]",83.5,82.3,80.4,60,3
"O=C(NOCC(O)CN1CCCCC1)c1ccc[n+]([O-])c1 (centres unmarked) [Compound no. 13, N-[2-hydroxy-3-(1-piperidinyl)propoxy]-pyridin-1-oxide-3-carboxamide]",90.3,88.4,95.2,54,4
"c1cncc(C2=NOCC(CN3CCCCC3)N2)c1 (centres unmarked) [Reference, 5,6-dihydro-5-(1-piperidinyl)-methyl-3-(3-pyridyl)-4H-1,2,4-oxadiazine, reference compound]",80.2,77.4,81.7,30,–
